Measured values reported in ChEMBL document CHEMBL6127111, “First-in-Class Small Molecule Degrader of Pregnane X Receptor Enhances Chemotherapy Efficacy” (J Med Chem, 2024).

How the values were obtained:
[1] = Cytotoxicity against human SNU-C4 HiBiT-PXR KI cell assessed as cell viability incubated for 72 hrs by celltiter-glo luminescent assay; type: functional
[2] = Cytotoxicity against human SNU-C4 HiBiT-PXR KI cell assessed as cell viability at 30 uM incubated for 24 hrs by celltiter-glo luminescent assay relative to control; type: functional; conditions: read-out: Activity
[3] = Cytotoxicity against human SNU-C4 HiBiT-PXR KI cell assessed as cell viability at 30 uM incubated for 72 hrs by celltiter-glo luminescent assay relative to control; type: functional; conditions: read-out: Activity
[4] = Cytotoxicity against human SNU-C4 HiBiT-PXR KI cell assessed as cell viability incubated for 24 hrs by celltiter-glo luminescent assay; type: functional
[5] = target: von Hippel-Lindau disease tumor suppressor/Nuclear receptor subfamily 1 group I member 2 (Homo sapiens, UniProt O75469+P40337); test: PROTAC activity at N-terminal PXR/VHL in human SNU-C4 HiBiT-PXR KI cell assessed as reduction in PXR protein level incubated for 24 hrs by Western blot analysis; type: cell-based
[6] = target: T1, Nuclear receptor subfamily 1 group I member 2 (Homo sapiens, UniProt O75469); test: Displacement of BODIPY FL-probe from GST-tagged PXR LBD (unknown origin) incubated for 90 mins by TR-FRET assay
T1 sequence (O75469 whole entry): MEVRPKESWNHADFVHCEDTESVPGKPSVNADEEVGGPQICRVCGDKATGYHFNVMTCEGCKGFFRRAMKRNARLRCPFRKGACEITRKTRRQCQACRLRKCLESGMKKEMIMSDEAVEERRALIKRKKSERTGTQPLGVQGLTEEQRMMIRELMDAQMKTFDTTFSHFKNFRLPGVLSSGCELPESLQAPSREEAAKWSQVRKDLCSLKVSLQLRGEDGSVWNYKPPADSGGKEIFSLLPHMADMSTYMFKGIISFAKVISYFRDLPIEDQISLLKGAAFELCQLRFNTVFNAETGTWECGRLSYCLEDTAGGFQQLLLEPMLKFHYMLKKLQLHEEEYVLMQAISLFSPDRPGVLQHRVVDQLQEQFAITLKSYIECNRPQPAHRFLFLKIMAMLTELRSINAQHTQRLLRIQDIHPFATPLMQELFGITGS

Chain of von Hippel-Lindau disease tumor suppressor/Nuclear receptor subfamily 1 group I member 2 (P40337 whole entry, one chain of several, the tested form may be a part): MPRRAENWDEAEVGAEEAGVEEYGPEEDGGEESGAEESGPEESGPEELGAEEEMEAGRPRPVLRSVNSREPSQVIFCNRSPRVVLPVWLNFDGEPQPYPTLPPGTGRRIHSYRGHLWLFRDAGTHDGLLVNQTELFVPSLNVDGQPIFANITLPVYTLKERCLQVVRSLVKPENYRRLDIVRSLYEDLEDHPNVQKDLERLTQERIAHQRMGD

DC50 [5] [µM]	Activity [6]	Compound	CC50 [1] [µM]	viability at 30 µM [2] [%]	viability at 30 µM [3] [%]	CC50 [4] [µM]
–	–	CC(=O)N[C@H](C(=O)N1C[C@H](O)C[C@H]1C(=O)NCc1ccc(-c2scnc2C)cc1)C(C)(C)C	> 30	99.6	93	> 30
> 30	–	CCC[C@H](CC)Oc1ccc(C(C)(C)C)cc1NC(=O)c1nnn(-c2cc(OC)ccc2OC)c1C	> 30	95.7	98.7	> 30
> 30	–	COc1cc(OCCOCCOCCC(=O)N[C@H](C(=O)N2C[C@H](O)C[C@H]2C(=O)NCc2ccc(-c3scnc3C)cc2)C(C)(C)C)c(C)cc1-n1nnc(S(=O)(=O)c2ccc(C(C)(C)C)cc2)c1C	> 30	–	98.9	> 30
> 30	–	COc1cc(OCCCCCCOCCOCCOCCCCCC(=O)N[C@H](C(=O)N2C[C@H](O)C[C@H]2C(=O)NCc2ccc(-c3scnc3C)cc2)C(C)(C)C)c(C)cc1-n1nnc(S(=O)(=O)c2ccc(C(C)(C)C)cc2)c1C	> 30	–	–	> 30
–	–	CCCCOc1ccc(C(C)(C)C)cc1NC(=O)c1nnn(-c2cc(C)c(OCCCCCCOCCOCC(=O)N[C@H](C(=O)N3C[C@H](O)C[C@H]3C(=O)NCc3ccc(-c4scnc4C)cc3)C(C)(C)C)cc2OC)c1C	> 30	96.7	91.2	> 30
> 30	–	COc1cc(OCCOCCOCCOCCOCCC(=O)N[C@H](C(=O)N2C[C@H](O)C[C@H]2C(=O)NCc2ccc(-c3scnc3C)cc2)C(C)(C)C)c(C)cc1-n1nnc(S(=O)(=O)c2ccc(C(C)(C)C)cc2)c1C	> 30	–	–	> 30
–	–	COc1ccc(OC)c(-n2nnc(C(=O)Nc3cc(OCCCCCCOCCOCC(=O)N[C@H](C(=O)N4C[C@H](O)C[C@H]4C(=O)NCc4ccc(-c5scnc5C)cc4)C(C)(C)C)cc(C(C)(C)C)c3)c2C)c1	> 30	83.2	68.2	> 30
> 30	–	COc1cc(OCCCC(=O)N[C@H](C(=O)N2C[C@H](O)C[C@H]2C(=O)NCc2ccc(-c3scnc3C)cc2)C(C)(C)C)c(C)cc1-n1nnc(S(=O)(=O)c2ccc(C(C)(C)C)cc2)c1C	> 30	–	95.4	> 30
> 30	–	CCC[C@H](CC)Oc1ccc(C(=O)NCCOCCOCCOCCOCC(=O)N[C@H](C(=O)N2C[C@H](O)C[C@H]2C(=O)NCc2ccc(-c3scnc3C)cc2)C(C)(C)C)cc1NC(=O)c1nnn(-c2cc(OC)ccc2OC)c1C	> 30	100	84.1	> 30
> 30	Active	CCC[C@H](CC)Oc1ccc(C(=O)OC)cc1NC(=O)c1nnn(-c2cc(OC)ccc2OC)c1C	> 30	95.6	94.9	> 30
> 30	–	CCC[C@H](CC)Oc1ccc(C(=O)NCCOCCOCCOCC(=O)N[C@H](C(=O)N2C[C@H](O)C[C@H]2C(=O)NCc2ccc(-c3scnc3C)cc2)C(C)(C)C)cc1NC(=O)c1nnn(-c2cc(OC)ccc2OC)c1C	> 30	98.3	89.1	> 30
> 30	–	COc1cc(OCC(=O)N[C@H](C(=O)N2C[C@H](O)C[C@H]2C(=O)NCc2ccc(-c3scnc3C)cc2)C(C)(C)C)c(C)cc1-n1nnc(S(=O)(=O)c2ccc(C(C)(C)C)cc2)c1C	> 30	–	–	> 30
> 30	–	CCC[C@H](CC)Oc1ccc(C(=O)NCCOCCOCC(=O)N[C@H](C(=O)N2C[C@H](O)C[C@H]2C(=O)NCc2ccc(-c3scnc3C)cc2)C(C)(C)C)cc1NC(=O)c1nnn(-c2cc(OC)ccc2OC)c1C	> 30	103	89.7	> 30
–	–	COc1cc(OCCCCCCOCCOCC(=O)N[C@H](C(=O)N2C[C@H](O)C[C@H]2C(=O)NCc2ccc(-c3scnc3C)cc2)C(C)(C)C)c(C)cc1-n1nnc(S(=O)(=O)c2ccc(C(C)(C)C)cc2)c1C	> 30	–	–	> 30
> 30	–	CCC[C@H](CC)Oc1ccc(C(=O)NCCCCCCCCC(=O)N[C@H](C(=O)N2C[C@H](O)C[C@H]2C(=O)NCc2ccc(-c3scnc3C)cc2)C(C)(C)C)cc1NC(=O)c1nnn(-c2cc(OC)ccc2OC)c1C	> 30	102	104	> 30
> 30	–	CCC[C@H](CC)Oc1ccc(C(=O)NCCCCC(=O)N[C@H](C(=O)N2C[C@H](O)C[C@H]2C(=O)NCc2ccc(-c3scnc3C)cc2)C(C)(C)C)cc1NC(=O)c1nnn(-c2cc(OC)ccc2OC)c1C	> 30	101	98.9	> 30
> 30	–	CCC[C@H](CC)Oc1ccc(C(=O)N[C@H](C(=O)N2C[C@H](O)C[C@H]2C(=O)NCc2ccc(-c3scnc3C)cc2)C(C)(C)C)cc1NC(=O)c1nnn(-c2cc(OC)ccc2OC)c1C	> 30	99.9	101	> 30
–	–	CCC[C@H](CC)Oc1ccc(C(C)(C)C)cc1NC(=O)c1nnn(-c2cc(C)c(OCCCCCCOCCOCC(=O)N[C@H](C(=O)N3C[C@H](O)C[C@H]3C(=O)NCc3ccc(-c4scnc4C)cc3)C(C)(C)C)cc2OC)c1C	> 30	93.9	104	> 30
> 30	–	COc1cc(OCC(=O)NCCOCCOCCOCCOCC(=O)N[C@H](C(=O)N2C[C@H](O)C[C@H]2C(=O)NCc2ccc(-c3scnc3C)cc2)C(C)(C)C)c(C)cc1-n1nnc(S(=O)(=O)c2ccc(C(C)(C)C)cc2)c1C	> 30	–	–	> 30
–	–	COc1cc(OCCCCCCOCCCCCOCCCCCC(=O)N[C@H](C(=O)N2C[C@H](O)C[C@H]2C(=O)NCc2ccc(-c3scnc3C)cc2)C(C)(C)C)c(C)cc1-n1nnc(S(=O)(=O)c2ccc(C(C)(C)C)cc2)c1C	> 30	–	94.3	> 30
> 30	–	COc1cc(OCCCCCCOCCOCCOCCOCCOCCOCC(=O)N[C@H](C(=O)N2C[C@H](O)C[C@H]2C(=O)NCc2ccc(-c3scnc3C)cc2)C(C)(C)C)c(C)cc1-n1nnc(S(=O)(=O)c2ccc(C(C)(C)C)cc2)c1C	> 30	–	–	> 30
> 30	–	COc1cc(OCCOCCOCCOCCOCCOCCC(=O)N[C@H](C(=O)N2C[C@H](O)C[C@H]2C(=O)NCc2ccc(-c3scnc3C)cc2)C(C)(C)C)c(C)cc1-n1nnc(S(=O)(=O)c2ccc(C(C)(C)C)cc2)c1C	> 30	–	–	> 30
> 30	–	COc1cc(OCCOCCOCCOCCC(=O)N[C@H](C(=O)N2C[C@H](O)C[C@H]2C(=O)NCc2ccc(-c3scnc3C)cc2)C(C)(C)C)c(C)cc1-n1nnc(S(=O)(=O)c2ccc(C(C)(C)C)cc2)c1C	> 30	–	–	> 30
> 30	–	COc1cc(OCCCCCCCC(=O)N[C@H](C(=O)N2C[C@H](O)C[C@H]2C(=O)NCc2ccc(-c3scnc3C)cc2)C(C)(C)C)c(C)cc1-n1nnc(S(=O)(=O)c2ccc(C(C)(C)C)cc2)c1C	> 30	–	–	> 30
> 30	–	COc1cc(OCCOCCC(=O)N[C@H](C(=O)N2C[C@H](O)C[C@H]2C(=O)NCc2ccc(-c3scnc3C)cc2)C(C)(C)C)c(C)cc1-n1nnc(S(=O)(=O)c2ccc(C(C)(C)C)cc2)c1C	> 30	–	–	> 30
> 30	–	CCC[C@H](CC)Oc1ccc(C(C)(C)C)cc1NC(=O)c1nnn(-c2cc(C)c(OC)cc2OC)c1C	> 30	99.3	106	> 30
